Earlier results in paper PMC5427923, “A novel CCR2 antagonist inhibits atherogenesis in apoE deficient mice by achieving high receptor occupancy” (Scientific Reports, 2017).

Assays:
CCR2 = tested on: CCR2; design: method as in PMID 16210643; details: single oral dose of 50 mg/kg, mice; ref [35]; cited from earlier work
apoE−/− mice = tested on: apoE−/− mice; design: method as in Aiello et al. [11]; details: ref Aiello et al. [11], cited from earlier work
hCCR2b = details: hCCR2; ref Vilums et al. [24]; cited from earlier work

| SMILES | CCR2 inhibition (CCR2) | size of early and advanced atherosclerotic lesions (apoE−/− mice; apoE−/− mice) | inflammatory monocyte levels (apoE−/− mice; up to 6 hours after oral infusion, lost at 9 hours) | RT (hCCR2b) [min] |
| --- | --- | --- | --- | --- |
| CCO[C@H]1CN(C2CCC(O)(c3ccc4c(c3)OCO4)CC2)C[C@@H]1NC(=O)CNC(=O)c1cccc(C(F)(F)F)c1 (mixture of isomers) [INCB3344] | approximately 75% | failed to decrease | significantly reduced | – |
| CO[C@@H]1COCC[C@@H]1N[C@@H]1CC[C@@](C(=O)N2CCc3ncc(C(F)(F)F)cc3C2)(C(C)C)C1 [MK-0812, reference compound] | – | – | – | 92 |
